Test results: ChEMBL document CHEMBL3885861, “Open TG-GATES”

Organism: Rattus norvegicus
Experiment: Open TG-GATES - Regimen: Single
Format: toxicity, organism-based, Sprague-Dawley
Set-up: regimen Single, gender Male, age 6 weeks
Conditions: in vivo, po, 1000 mg/kg, route gavage, dose level High; for APTT / Bas / Eos / Fbg / Hb / Ht / Lym / MCH / MCHC / MCV / Mono / Neu / PT / Plat / RBC / Ret / WBC: tissue Blood; for KIDNEY_L / KIDNEY_R / KIDNEY_TOTAL: tissue Kidney; for LIVER: tissue Liver; for A/G / ALP / ALT / AST / BUN / CRE / Ca / Cl / DBIL / GLC / IP / K / LDH / Na / PL / RALB / TBIL / TC / TG / TP / gamma-GTP: tissue Plasma

CC(C)(S)[C@@H](N)C(=O)O [PENICILLAMINE]
TERMINAL_BW (3 h): 206.7 g | APTT (3 h): 16.4 s | Bas (3 h): 0% | Eos (3 h): 1% | Fbg (3 h): 281.4 mg/dL | Hb (3 h): 13.2 g/dL | Ht (3 h): 40.7% | Lym (3 h): 77% | MCH (3 h): 20.5 pg | MCHC (3 h): 32.3% | MCV (3 h): 63.4 fL | Mono (3 h): 3.2% | Neu (3 h): 18.4% | PT (3 h): 15.6 s | Plat (3 h): 128.4 x10_4/uL | RBC (3 h): 642.8 x10_4/ul | Ret (3 h): 9.2% | WBC (3 h): 83.2 x10_2/uL | KIDNEY_L (3 h): 0.9 g | KIDNEY_R (3 h): 0.9 g | KIDNEY_TOTAL (3 h): 1.8 g | LIVER (3 h): 8.6 g | A/G (3 h): 0.9 | ALP (3 h): 756.4 IU/L | ALT (3 h): 41.8 IU/L | AST (3 h): 75.6 IU/L | BUN (3 h): 9 mg/dL | CRE (3 h): 0.2 mg/dL | Ca (3 h): 10.7 mg/dL | Cl (3 h): 104.6 meq/L | DBIL (3 h): 0.01 mg/dL | GLC (3 h): 187 mg/dL | IP (3 h): 8.3 mg/dL | K (3 h): 4.3 meq/L | LDH (3 h): 74 IU/L | Na (3 h): 141.4 meq/L | PL (3 h): 141 mg/dL | RALB (3 h): 2.5 g/dL | TBIL (3 h): 0.032 mg/dL | TC (3 h): 78 mg/dL | TG (3 h): 67.2 mg/dL | TP (3 h): 5.1 g/dL | gamma-GTP (3 h): 1.2 IU/L | TERMINAL_BW (6 h): 203.8 g | APTT (6 h): 16.5 s | Bas (6 h): 0% | Eos (6 h): 0.6% | Fbg (6 h): 314 mg/dL | Hb (6 h): 13.2 g/dL | Ht (6 h): 41% | Lym (6 h): 71.8% | MCH (6 h): 20.8 pg | MCHC (6 h): 32.1% | MCV (6 h): 64.7 fL | Mono (6 h): 4.2% | Neu (6 h): 22.2% | PT (6 h): 14.8 s | Plat (6 h): 126.9 x10_4/uL | RBC (6 h): 635.2 x10_4/ul | Ret (6 h): 9.5% | WBC (6 h): 86.9 x10_2/uL | KIDNEY_L (6 h): 0.9 g | KIDNEY_R (6 h): 0.9 g | KIDNEY_TOTAL (6 h): 1.8 g | LIVER (6 h): 8 g | A/G (6 h): 1 | ALP (6 h): 741.6 IU/L | ALT (6 h): 35.8 IU/L | AST (6 h): 70.8 IU/L | BUN (6 h): 8 mg/dL | CRE (6 h): 0.2 mg/dL | Ca (6 h): 10.6 mg/dL | Cl (6 h): 105.4 meq/L | DBIL (6 h): 0.004 mg/dL | GLC (6 h): 173.6 mg/dL | IP (6 h): 9.3 mg/dL | K (6 h): 4.2 meq/L | LDH (6 h): 80.8 IU/L | Na (6 h): 141.4 meq/L | PL (6 h): 134.6 mg/dL | RALB (6 h): 2.5 g/dL | TBIL (6 h): 0.028 mg/dL | TC (6 h): 79.8 mg/dL | TG (6 h): 31.4 mg/dL | TP (6 h): 5.2 g/dL | gamma-GTP (6 h): 1 IU/L | TERMINAL_BW (9 h): 203.4 g | APTT (9 h): 16.5 s | Bas (9 h): 0% | Eos (9 h): 1% | Fbg (9 h): 294.2 mg/dL | Hb (9 h): 13 g/dL | Ht (9 h): 40.6% | Lym (9 h): 73.6% | MCH (9 h): 20.2 pg | MCHC (9 h): 32.2% | MCV (9 h): 62.9 fL | Mono (9 h): 3.2% | Neu (9 h): 21.6% | PT (9 h): 15.4 s | Plat (9 h): 116 x10_4/uL | RBC (9 h): 645 x10_4/ul | Ret (9 h): 9% | WBC (9 h): 82.2 x10_2/uL | KIDNEY_L (9 h): 1 g | KIDNEY_R (9 h): 0.9 g | KIDNEY_TOTAL (9 h): 1.9 g | LIVER (9 h): 7.6 g | A/G (9 h): 1 | ALP (9 h): 664.8 IU/L | ALT (9 h): 31.4 IU/L | AST (9 h): 65.4 IU/L | BUN (9 h): 7.8 mg/dL | CRE (9 h): 0.2 mg/dL | Ca (9 h): 10.5 mg/dL | Cl (9 h): 107 meq/L | DBIL (9 h): 0.01 mg/dL | GLC (9 h): 177 mg/dL | IP (9 h): 10.2 mg/dL | K (9 h): 4.3 meq/L | LDH (9 h): 67.4 IU/L | Na (9 h): 142.6 meq/L | PL (9 h): 127 mg/dL | RALB (9 h): 2.5 g/dL | TBIL (9 h): 0.036 mg/dL | TC (9 h): 73.2 mg/dL | TG (9 h): 21.4 mg/dL | TP (9 h): 5.1 g/dL | gamma-GTP (9 h): 0.8 IU/L | TERMINAL_BW (24 h): 215.2 g | APTT (24 h): 16.2 s | Bas (24 h): 0% | Eos (24 h): 1.2% | Fbg (24 h): 291 mg/dL | Hb (24 h): 13.4 g/dL | Ht (24 h): 41.2% | Lym (24 h): 75.4% | MCH (24 h): 20.8 pg | MCHC (24 h): 32.4% | MCV (24 h): 64.2 fL | Mono (24 h): 3.2% | Neu (24 h): 19.8% | PT (24 h): 14.2 s | Plat (24 h): 116.1 x10_4/uL | RBC (24 h): 642.2 x10_4/ul | Ret (24 h): 7.1% | WBC (24 h): 85.6 x10_2/uL | KIDNEY_L (24 h): 0.9 g | KIDNEY_R (24 h): 0.9 g | KIDNEY_TOTAL (24 h): 1.9 g | LIVER (24 h): 9.8 g | A/G (24 h): 0.9 | ALP (24 h): 1271.2 IU/L | ALT (24 h): 47.8 IU/L | AST (24 h): 68 IU/L | BUN (24 h): 14.6 mg/dL | CRE (24 h): 0.2 mg/dL | Ca (24 h): 11 mg/dL | Cl (24 h): 105.2 meq/L | DBIL (24 h): 0.012 mg/dL | GLC (24 h): 176 mg/dL | IP (24 h): 9 mg/dL | K (24 h): 4.1 meq/L | LDH (24 h): 86.8 IU/L | Na (24 h): 143.8 meq/L | PL (24 h): 155.6 mg/dL | RALB (24 h): 2.6 g/dL | TBIL (24 h): 0.028 mg/dL | TC (24 h): 85 mg/dL | TG (24 h): 85.2 mg/dL | TP (24 h): 5.4 g/dL | gamma-GTP (24 h): 0.8 IU/L
